Laboratory results: publication PMC8279406 (Journal of Medicinal Chemistry, 2021)

Legend:
nectin1 = assay: Integrin internalization assay, surface nectin1 control by flow cytometry; type: cell-based; conditions: J cells with nectin1, αvβ6 and αvβ8, 700 μM, 1 h at 37 °C
Protocol: Figure 5 Integrin internalization assay. J cells were transfected with a low amount (75 ng of DNA/24 well) of nectin1 plus αvβ6 integrin (300 ng of DNA/24 well) and αvβ8 integrin (300 ng of DNA/24 well). Then, 48 h after transfection, the cells were exposed to 700 μM peptides for 1 h at 37 °C. Cells derived from samples treated or not treated with peptides were incubated for 1 h at 4 °C with FAB4155A (mAbβ6), FAB4775A (mAbβ8), and R1.302 (mAbnectin1) mAbs. Samples incubated with R1.302 were washed and subsequently incubated for 1 h at 4 °C with the allophycocyanin (APC) mouse secondary antibody. Integrin and nectin1 surface expression levels were quantified as flow cytometry expression of the APC mean fluorescence intensity (MFI) of gated cells. Histograms represent the average of triplicates ± SD.
J cells were transfected with low amounts of plasmids encoding nectin1 (75 ng of DNA/24 well), plus plasmids encoding αv + β6 and αv + β8 integrins (300 ng of DNA/24 well) by means of Lipofect 2000 (Life Technologies). Then, 48 h after transfection, the cells were incubated with a single concentration of peptides (700 μM) for 1 h at 37 °C. At the end of the treatment with the peptides, half of the sample was used to visualize the expression of integrins β6 and β8 or of nectin1 used as a control in a flow cytometry assay. […]

gHsolST = assay: gH binding assay, gHsolST binding to transfected J cells; type: cell-based, HSV-1; conditions: J cells with nectin1, αvβ6 and αvβ8, 700 μM peptide, 2 μM gHsolST
Protocol: To further verify this hypothesis, the soluble form of gH (gHsolST) was used in a soluble protein in the cell-binding assay on J cells transfected with nectin1 and the αvβ6 and αvβ8 integrins, treated or untreated with each peptide.
Figure 6 gH binding assay. J cells were transfected with a low amount (75 ng of DNA/24 well) of nectin1 plus αvβ6 integrin (300 ng of DNA/24 well) and αvβ8 integrin (300 ng of DNA/24 well). Then, 48 h after transfection, the cells were exposed to 700 μM peptides for 1 h at 37 °C. Cells derived from samples treated or not treated with peptides were incubated for 1 h at 4 °C with gHsolST or gBsolST. Samples were washed and subsequently incubated for 1 h at 4 °C with phycoerythrin (PE)-conjugated mAb to the One-STrEP tag (Strep-Tactin). gHsolST and gBsolST binding to the cell surface were quantified as the flow cytometry expression of the PE mean fluorescence intensity (MFI) of gated cells. Histograms represent the average of triplicates ± SD.
The remaining half of the samples were used for the gH binding assay. […] Control cells were incubated with 2 μM gBsolST in 100 μL of the same buffer used for gHsolST and the binding of soluble protein was detected as described for the gH binding assay. Cells were analyzed by cytofluorimetric analyses using an AccuriC6 flow cytometer (Becton Dickinson). […]

human αvβ8 integrin = target: T1, human αvβ8 integrin (Homo sapiens, UniProt P06756+P26012); assay: LAP(TGF-β1)-αvβ8 competitive solid-phase ELISA binding assay; conditions: for IC50: competitive ELISA, immobilized LAP, soluble integrin
T1 construct: purchased R&D Systems (Biotechne brand) 4135-AV
Protocol: The affinity and selectivity of the integrin peptide ligands were ascertained according to a modified method previously reported by some of us.[33],[47] The binding was determined in a competitive solid-phase binding assay using extracellular matrix proteins, soluble integrins, and pertinent integrin-specific antibodies in an enzyme-linked immunosorbent assay (ELISA).
The experimental procedure is as described for the αvβ6 assay, except for the following modifications. The plates were coated, washed, and blocked as described above. Soluble integrin αvβ8 was mixed with an equal volume of serially diluted inhibitors resulting in a final integrin concentration of 0.25 μg/mL and 0.0032–10 μM for the inhibitors. The primary and secondary antibodies are the same as in the integrin αvβ6 assay. Visualization and analysis were performed as described above. Each plate contained a linear peptide ([…]) as the internal standard.[3]

Question: Which results are given for `N=C(N)NCCC[C@@H]1NC(=O)CC[C@@H](C(N)=O)NC(=O)[C@H](C2CCCCC2)NC(=O)[C@H](CC(=O)O)NC(=O)CNC1=O` [compound 1, [Arg-Gly-Asp-Chg-Glu]-CONH2]?
Answer: surface expression of nectin1 (in words) (nectin1): not altered; binding of gHsolST to cells (in words) (gHsolST): only partially reduced; IC50 (human αvβ8 integrin): 0.174 ± 0.031 µM

Question: What does the source list for `CN1C(=O)[C@H](C2CCCCC2)NC(=O)[C@H](CC(=O)O)NC(=O)CNC(=O)[C@H](CCCNC(=N)N)NC(=O)CC[C@H]1C(N)=O` [compound 6, [Arg-Gly-Asp-Chg-(NMe)Glu]-CONH2]?
Answer: surface expression of nectin1 (in words) (nectin1): not altered; binding of gHsolST to cells (in words) (gHsolST): strongly reduced; fold more potent than 1 for αvβ8 (human αvβ8 integrin; 60 vs 174 nM): 3 fold; IC50 (human αvβ8 integrin): 0.06 ± 0.002 µM
